The record followed here is US10807971B2, “Pyrrolidinone compounds” (Eli Lilly and Company, priority 2016, dated 2020).

In test [1] the test system is obese DIO mice. Put plainly: Therapeutic weight loss effect in HFD feeding induced obese mouse model (DIO mice). The settings on record: day 14. Format: in vivo. The protocol: To determine the therapeutic weight loss effects and improvement of metabolic parameters, the compound from the invention is tested in a HFD feeding induced obese mouse model (DIO mice). In this model, C57/B16J male mouse is fed with the 60% HFD (D12492i, Research Diets) for 16˜28 weeks to establish obesity with body weight reaching around 50 g. The mice will gradually increase their body weight to about 50 g and maintain that weight in this obese state.

In test [2] the target is mouse DPP-4 ((29-760)-His) (Mus musculus (Mouse), UniProt P28843). Nature of the test: Enzymatic activity assay of DPP-4 (Gly-Pro-AMC fluorescence). Format: biochemical. To be noted: (SD, n), read-out: mDPP-4 IC50. The protocol: (§1) Inhibition of the catalytic activity of human and mouse DPP-4 by the compound in the present invention is monitored by the formation of product fluorescence AMC from substrate Gly-Pro-AMC (Sigma, G2761) on an Envision plate reader. […] The IC50 value is calculated typically from a 10-point dose titration curve using the 4-parameter logistic equation.

Test [3] concerns the target Human DPP-4 ((39-766)-His) (Homo sapiens (Human), UniProt P27487). The description is as above. The test is classed as biochemical. The settings on record: (SD, n), read-out: hDPP-4 IC50. As for the experimental part: as §1

Structures can show the parent of a compound that is named as a salt. Some results are limits rather than exact numbers.

Sequence of mouse DPP-4 ((29-760)-His) (P28843 29-760): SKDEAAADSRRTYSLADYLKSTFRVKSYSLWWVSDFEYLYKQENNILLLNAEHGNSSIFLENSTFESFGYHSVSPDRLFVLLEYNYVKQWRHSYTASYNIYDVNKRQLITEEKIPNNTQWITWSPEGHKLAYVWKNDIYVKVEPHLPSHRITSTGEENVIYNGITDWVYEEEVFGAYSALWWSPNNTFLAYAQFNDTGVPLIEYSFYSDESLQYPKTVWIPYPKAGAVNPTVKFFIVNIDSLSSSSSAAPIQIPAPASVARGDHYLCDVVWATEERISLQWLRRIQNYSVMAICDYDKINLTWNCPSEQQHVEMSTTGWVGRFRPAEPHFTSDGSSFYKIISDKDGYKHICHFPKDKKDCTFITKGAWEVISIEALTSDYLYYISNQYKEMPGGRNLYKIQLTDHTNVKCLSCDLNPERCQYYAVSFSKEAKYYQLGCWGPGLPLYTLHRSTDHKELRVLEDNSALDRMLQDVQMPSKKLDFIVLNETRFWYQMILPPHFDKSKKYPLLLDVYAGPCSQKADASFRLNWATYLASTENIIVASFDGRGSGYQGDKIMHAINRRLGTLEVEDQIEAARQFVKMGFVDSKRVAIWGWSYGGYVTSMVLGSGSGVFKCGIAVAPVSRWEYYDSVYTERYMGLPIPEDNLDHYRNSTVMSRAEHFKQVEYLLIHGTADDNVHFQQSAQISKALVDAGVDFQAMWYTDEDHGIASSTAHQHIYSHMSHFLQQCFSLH
Sequence of Human DPP-4 ((39-766)-His) (P27487 39-766): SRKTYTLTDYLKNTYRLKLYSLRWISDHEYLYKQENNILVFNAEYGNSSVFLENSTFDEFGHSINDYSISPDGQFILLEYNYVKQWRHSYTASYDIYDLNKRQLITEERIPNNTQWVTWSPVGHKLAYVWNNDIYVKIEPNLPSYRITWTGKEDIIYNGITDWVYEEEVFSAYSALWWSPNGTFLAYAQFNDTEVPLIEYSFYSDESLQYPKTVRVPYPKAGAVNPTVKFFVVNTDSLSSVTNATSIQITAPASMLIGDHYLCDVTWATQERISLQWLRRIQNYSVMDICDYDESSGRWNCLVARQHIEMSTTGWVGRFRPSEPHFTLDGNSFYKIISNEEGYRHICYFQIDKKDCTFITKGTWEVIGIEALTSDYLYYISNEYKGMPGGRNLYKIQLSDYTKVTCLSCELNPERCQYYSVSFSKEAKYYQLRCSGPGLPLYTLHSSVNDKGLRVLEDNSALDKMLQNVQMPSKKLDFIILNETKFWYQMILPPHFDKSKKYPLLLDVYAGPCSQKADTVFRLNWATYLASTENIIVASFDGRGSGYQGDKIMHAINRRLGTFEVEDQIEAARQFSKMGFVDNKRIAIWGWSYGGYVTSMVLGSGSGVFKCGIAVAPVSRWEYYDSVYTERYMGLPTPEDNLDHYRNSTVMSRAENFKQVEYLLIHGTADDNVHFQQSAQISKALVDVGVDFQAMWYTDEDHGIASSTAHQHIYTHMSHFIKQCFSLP

As for `Cl.N[C@H]1C[C@@H](N2Cc3ccc(N4CCC(O)(C(=O)NCc5cc(F)cc(F)c5F)C4=O)cc3C2)CO[C@@H]1c1cc(F)ccc1F` (single isomer, unassigned; isomer 1) [Example 1], the “weight loss compared to the vehicle group” value in test [1] (oral 20 mg/kg once daily) is “about 8.9%”. As for `Cl.N[C@H]1C[C@@H](n2cc(N3CCC(O)(C(=O)NCc4cc(Cl)cc(Cl)c4F)C3=O)cn2)CO[C@@H]1c1cc(F)ccc1F` (single isomer, unassigned; isomer 1) [Example 7], the “weight loss compared to the vehicle group” value in test [1] (oral 40 mg/kg once daily) is “about 4.8%”.

For orientation: IC50 means the concentration needed to halve the response being measured. Turning to `N[C@H]1C[C@@H](n2ncc(N3CCC(O)(C(=O)NCc4cc(Cl)cc(Cl)c4F)C3=O)n2)CO[C@@H]1c1cc(F)ccc1F` (single isomer, unassigned; isomer 1) [Example 11, hydrochloride], the IC50 in test [2] and in test [3] was under 1.52 nM in each case.
